Reference: patent publication US20240158447A1, “PEPTIDES FOR USE IN THE TREATMENT OR PREVENTION OF MYOCARDIAL DAMAGE” (THE UNIVERSITY OF WESTERN AUSTRALIA, priority 2020, published 2024)

Assays:
[1] = system: cTnI-G203S mutant myocytes; assay: Flavoprotein oxidation response to BayK(−), cTnI-G203S myocytes (Example 10); format: cell-based, mouse; settings: 0.5 μM peptide, 10 μM BayK(−), FIG. 10D
Protocol: (§1) In this experiment wt myocytes were pre-exposed to 0.1, 0.5 or 1 μM for 20 min and assessed changes in flavoprotein oxidation and ψm.
Measurement of mitochondrial flavoprotein oxidation: Flavoprotein autofluorescence was used to measure flavoprotein oxidation based on previously described methods (Yaniv Y, Juhaszova M, Lyashkov A E, Spurgeon H A, Sollott S J, Lakatta E G. Ca2+-regulated-cAMP/PKA signaling in cardiac pacemaker cells links ATP supply to demand. J Mol Cell Cardiol. 2011; 51(5):740-8). […] Fluorescent images were acquired at 1 min intervals with 200 ms exposure. Metamorph 6.3 (Version 7.10.3) was used to quantify the signal by manually tracing myocytes. […] Fluorescence values recorded over 5 min before and 5 min after addition of drugs were averaged and alterations in fluorescent ratios reported as the percentage increase from the basal average. FCCP (50 μM) and NaCN (40 mM) was added at the end of each experiment to achieve a respective maximal and minimal fluorescence value indicative of maximal and minimal flavoprotein oxidation.
The ICA-L agonist BayK(−) was used to activate the channel and assess mitochondrial function. […] FIG. 10 presents the mean+/−SEM of flavoprotein fluorescence from cTnI.2 wt and cTnI-G2035 mutant myocytes before and after exposure to 10 μM BayK(−) in the presence of 1 μM AID(S)-TAT, and increasing concentrations of variant peptides as indicated. […]

[2] = system: cTnI-G203S mutant myocytes; assay: Mitochondrial membrane potential (JC-1) response to BayK(−), cTnI-G203S myocytes (Example 10); format: cell-based, mouse
Protocol: as §1
Measurement of mitochondrial membrane potential: The fluorescent indicator 5,5′,6,6′-tetrachloro1,1′,3,3′-tetraethylbenzimidazolylcarbocyanine iodide (JC-1) was used to measure mitochondrial membrane potential (ψm) as previously described (Viola H M, Arthur P G, Hool L C. Transient exposure to hydrogen peroxide causes an increase in mitochondria-derived superoxide as a result of sustained alteration in L-type Ca2+ channel function in the absence of apoptosis in ventricular myocytes. Circ Res. 2007; 100(7):1036-44). […] Images were acquired at 2 min intervals with 50 ms exposure. Metamorph 6.3 (Version 7.10.3) was used to quantify the signal by manually tracing myocytes. An equivalent region not containing cells was used as background and was subtracted. The 580 nm/535 nm ratiometric fluorescence values recorded over 6 min before and 4 min after addition of drugs were averaged and alterations in fluorescent ratios reported as the percentage increase from the basal average. To confirm that the signal was indicative of ψm, 40 mM NaCN was added at the end of each experiment to collapse ψm. In addition, individual 580 and 535 signals were assessed in each experiment to determine whether the fluorescent indicator was accurately measuring ψm. For calcium-free experiments, cells were exposed to calcium-free HBS (supplemented with 3 mM EGTA and 200 nM JC-1) for at least 3 h prior to measuring changes in ψm.
Based on results obtained from in vitro assessment of flavoprotein oxidation, the effect of 0.5 μM AID-TAT variants on changes in mitochondrial membrane potential (ψm) was further explored. Experiments were performed using JC-1 fluorescence under calcium-free conditions as previously described (Viola H, Johnstone V, Cserne Szappanos H, Richman T, Tsoutsman T, Filipovska A, et al. The L-type Ca(2+) channel facilitates abnormal metabolic activity in the cTnI-G2035 mouse model of hypertrophic cardiomyopathy. J Physiol. 2016; 594(14):4051-70; Viola H M, Shah A A, Johnstone V P A, Cserne Szappanos H, Hodson M P, Hool L C. Characterization and validation of a preventative therapy for hypertrophic cardiomyopathy in a murine model of the disease. Proc Natl Acad Sci U S A. 2020; 117(37):23113-24). […] FIG. 11 presents the mean+/−SE of JC-1 fluorescence from cTnI.2 wt and cTnI-G203S mutant myocytes before and after exposure to 10 μM BayK(−) in the presence of 1 μM AID(S)-TAT, and 0.5 μM of variant peptides as indicated. N=no. of animals, n=no. of cardiomyocytes. P values shown compared with AID(S)-TAT as determined by the Kruskal-Wallis test.

[3] = system: cTnI-G203S mice; assay: Heart weight to body weight ratio of treated cTnI-G203S mice; format: in vivo, mouse; settings: 5 μM, 3×/wk/5 wk; compared with cTnI-G203S AID(S)-TAT; FIG. 16
Protocol: The effect of treatment of the mice with peptides on the development of hypertrophy assessed as changes in heart weight to body weight ratio was also examined. […] FIG. 16 presents the mean±SEM of heart weight to body weight ratio measurements from wt and cTnI-G203S mice treated with 10 μM AID(S)-TAT, 10 μM AID-TAT, 5 μM AIDP7-TAT, 5 μM AIDP14-TAT, 5 μM AIDP15-TAT or 5 μM AIDP16-TAT. n=number of mice as indicated. *P<0.05, **P<0.01 compared with cTnI-G203S AID(S)-TAT as determined by Kruskal-Wallis tests.

## AIDP7-TAT: QQQEEDLKGYLDWITQAE with TAT sequence
[1]
  BayK(−) induced increase in flavoprotein oxidation: significantly attenuated increases in flavoprotein oxidation resulting from BayK(−) exposure
[2]; 0.5 μM peptide, calcium-free, FIG. 11B
  BayK(−) induced increase in ψm (JC-1 fluorescence): significantly attenuated the response
[2]; flavoprotein oxidation and JC-1 data together
  normalising mitochondrial metabolic activity (in vitro, overall): most effective in normalising mitochondrial metabolic activity
[3]
  heart weight to body weight ratio: significantly decreased heart weight/body weight
